“Also recorded” adds a separate entry of the source.
Key:
[1] = system: patients with primary periodic paralysis; assay: Phase III double-blind plus open-label extension study: cognition-related adverse events during dichlorphenamide treatment; format: in vivo, human
Protocol: Data were analyzed from a 9-week Phase III, randomized, double-blind, placebo-controlled phase and a 52-week open-label extension phase. The trial included two substudies: one in adults with hyperkalemic periodic paralysis and one in adults with hypokalemic periodic paralysis. The substudy data were pooled. Medical Dictionary for Regulatory Activities high-level group terms of deliria (including confusion) and mental impairment disorders were pooled for cognition-related events. Kaplan-Meier methods were used to estimate the percentages of patients with no occurrence of the adverse event over time.
Dose reductions were allowed for intolerable adverse events. […] Adverse events reported during dichlorphenamide exposure were summarized by double-blind treatment/open label treatment (placebo/dichlorphenamide or dichlorphenamide/dichlorphenamide) group.
The age range was 19 to 76 years.

[2] = cited from earlier work
[3] = cited from earlier work; remark: listed apart in the source
[4] = n = 63, cognition-related adverse events
[5] = n = 63, considered by investigators at least possibly related to study drug
[6] = n = 63, listed as dichlorphenamide

NS(=O)(=O)c1cc(Cl)c(Cl)c(S(N)(=O)=O)c1 [Dichlorphenamide, 4,5-dichloro-1,3-benzenedisulfonamide]
Intensity of cognition-related adverse events (in words) ([1]; 61-week study): Most cognition-related adverse events were mild in intensity; also recorded: mild or moderate in intensity
Discontinuation due to cognition-related adverse event, patients % ([1]; n = 63): (6.3) %
Discontinuation due to cognition-related adverse event, patients n ([1]; n = 63): 4 patients
Resolution of last cognition-related adverse event: Resolved, patients % ([1]; n = 63): (17.5) %
Resolution of last cognition-related adverse event: Resolved, patients n ([1]; n = 63): 11 patients
Resolution of last cognition-related adverse event: Under treatment/observation, patients % ([1]; n = 63): (7.9) %
Resolution of last cognition-related adverse event: Under treatment/observation, patients n ([1]; n = 63): 5 patients
Any cognition-related adverse event, patients % ([1]; n = 63, 61-week study duration): (25.4) %
Any cognition-related adverse event, patients n ([1]; n = 63, 61-week study duration, pooled hyper/hypokalemic periodic paralysis): 16 patients
Any cognition-related adverse event, patients % ([1]; n = 63, 61-week study duration, listed as dichlorphenamide): 25.4%
Adverse event intensity: Mild, patients % [1, 4]: (14.3) %
Adverse event intensity: Mild, patients n [1, 4]: 9 patients
Adverse event intensity: Moderate, patients % [1, 4]: (7.9) %
Adverse event intensity: Moderate, patients n [1, 4]: 5 patients
Adverse event intensity: Severe, patients % [1, 4]: (3.2) %
Adverse event intensity: Severe, patients n [1, 4]: 2 patients
Any drug-related cognition-related adverse event, patients % [1, 5]: (25.4) %
Any drug-related cognition-related adverse event, patients n [1, 5]: 16 patients
Discontinuation due to cognition-related adverse event, patients % [1, 6]: 6.3%
Discontinuation due to cognition-related adverse event, patients n [1, 6]: Four
Patients with cognition-related adverse event who had the dose of dichlorphenamide reduced, % ([1]; of 16 patients with cognition-related adverse event): 37.5%
Outcome of cognition-related adverse event after dose reduction ([1]; six patients with reduced dose): resolved in all six cases; also recorded: Reduced doses frequently resolved these adverse events
Onset of cognition-related adverse events ([1]; time from start of dichlorphenamide treatment): during the first four weeks; also recorded: within the first month of therapy
Solubility in dilute solutions of sodium carbonate and sodium hydroxide ([2]; dilute sodium carbonate and sodium hydroxide solutions): soluble
Solubility in water ([2]; water): very slightly soluble
Stability of dilute alkaline solutions ([3]; room temperature): stable
Storage stability ([3]; storage): at least 36 months
